Data taken from patent US12263248B2, “Compounds and compositions for intracellular delivery of therapeutic agents” (ModernaTX, Inc., priority 2018, dated 2025).

Experiments:
[1] = Encapsulation efficiency of RNA (QUANT-IT RIBOGREEN RNA assay); assay type: physicochemical; details: Table 1A
Method in brief: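 RiboGreen fluorescence (ex ~480, em ~520 nm) compared between intact samples and Triton X-100-lysed samples after 15 min at 37 °C in TE buffer, pH 7.5. Percent free RNA is the blank-corrected intact/disrupted ratio.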

luciferase (Luc) mRNA [2] = assay: Luc expression, whole body bioluminescence after intravenous administration to mice; assay type: in vivo; details: for 6 h Lipid/MC3 Avg. Luc Expression / Fold increase AUC Lipid/MC3 / AUC (h * p/s): Table 3C; for 6 h Lipid/MC3 Avg. Luc Expression / Fold increase AUC Lipid/MC3 / AUC (h * p/s) / Fold increase in total body Luc Flux relative to MC3 at 6 h: i.v. administration; for Total Flux 3 hours / Total Flux 6 hours / Total Flux 24 hours: Luc mRNA; for Fold increase in total body Luc Flux relative to MC3 at 6 h: Table 3A
Method in brief: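 Bioluminescence, read as region-of-interest total flux at 3, 6 and 24 h, followed a single 0.5 mg/kg intravenous dose of Luc mRNA-loaded nanoparticles in mice (n=6). Luciferin substrate (200 μL, 15 mg/mL in PBS) was injected intraperitoneally into CD-1 mice 15 minutes ahead of each imaging point.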

[3] = Apparent (surface) pKa of the LNP formulation (TNS assay); assay type: physicochemical; details: Table 1A
Method in brief: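 Fluorescence of TNS probe added to LNP samples (mRNA 0.04 mg/mL) was read across 21 buffers of pH about 3-12, triplicate per pH. The inflection point of the sigmoidal fluorescence-vs-pH curve, […], gives apparent pKa; method validated in 1× PBS and Tris/sucrose buffer.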

luciferase (Luc) mRNA [4] = assay: Luc expression in liver, lung, spleen and femur 6 hours after intravenous administration; assay type: in vivo; details: mice, 0.5 mpk; for Total Flux Liver / Total Flux Lung / Total Flux Spleen: intravenous
Method in brief: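 LNP-formulated mRNA given IV to mice (n=3) at 0.5 mpk; at 6 h, bioluminescence imaged ex vivo 15 min after IP D-luciferin (15 mg/mL, 200 μL), organs imaged within 25 min. Values are total flux by region of interest.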

[5] = Particle size and polydispersity index of nanoparticle compositions (Zetasizer Nano ZS); assay type: physicochemical; details: Table 1A; for Size (nm): lipid:DSPC:cholesterol:PEG-DMG 50:10:38.5:1.5 mol %
Method in brief: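 Zetasizer Nano ZS; samples in 1×PBS; read-out: particle size plus polydispersity index.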

luciferase (Luc) mRNA [6] = assay: Luc expression (total flux) after intramuscular administration; assay type: in vivo, mice; details: 6 hours after intramuscular administration, Luc mRNA and H10 mRNA
Experimental: In order to monitor how effectively various nanoparticle compositions deliver therapeutic and/or prophylactics to targeted cells, different nanoparticle compositions including a particular therapeutic and/or prophylactic (for example, a modified or naturally occurring RNA such as an mRNA) are prepared and administered to rodent populations. Mice are intravenously, intramuscularly, intraarterially, or intratumorally administered a single dose including a nanoparticle composition with a formulation such as those provided in Example 3. In some instances, mice may be made to inhale doses. Dose sizes may range from 0.001 mg/kg to 10 mg/kg, where 10 mg/kg describes a dose including 10 mg of a therapeutic and/or prophylactic in a nanoparticle composition for each 1 kg of body mass of the mouse. A control composition including PBS may also be employed.
Sample formulations including both modified luciferase (Luc) mRNA and H10 mRNA were prepared and administered intramuscularly and the resulting expression and immunogenicity were evaluated simultaneously. Formulations including compounds according to Formula (I), (IA), (IB), (II), (IIa), (IIb), (IIc), (IId), (IIe), (IIf), (IIg), (III), (VI), (VI-a), (VII), (VIII), (VIIa), (VIIIa), (VIIIb), (VIIb-1), (VIIb-2), (VIIb-3), (VIIc), (VIId), (VIIIc), or (VIIId) were prepared and administered at doses of 0.001 and 0.01 mpk (e.g., doses of 0.0005 mpk of a formulation including Luc mRNA and a formulation including H10 mRNA or doses of 0.005 mpk of a formulation including Luc mRNA and a formulation including H10 mRNA).
Sample formulations including modified luciferase (Luc) mRNA prepared and administered intramuscularly and the resulting expression and immunogenicity were evaluated simultaneously. Formulations including compounds according to Formula (I), (IA), (IB), (II), (IIa), (IIb), (IIc), (IId), (IIe), (IIf), (IIg), (III), (VI), (VI-a), (VII), (VIII), (VIIa), (VIIIa), (VIIIb), (VIIb-1), (VIIb-2), (VIIb-3), (VIIc), (VIId), (VIIIc), or (VIIId) were prepared and administered at dose of and 0.01 mpk.

Row | SMILES | EE (%) [1] | pKa [3] | PDI [5] | Size (nm) [5] | 6 h Lipid/MC3 Avg. Luc Expression (luciferase (Luc) mRNA [2]) | Fold increase AUC Lipid/MC3 (luciferase (Luc) mRNA [2]) | AUC (h * p/s) (luciferase (Luc) mRNA [2]; Luc) | Total Flux 3 hours (luciferase (Luc) mRNA [2]; mice, i.v., 0.5 mg/kg) | Total Flux 6 hours (luciferase (Luc) mRNA [2]; mice, i.v., 0.5 mg/kg) | Total Flux 24 hours (luciferase (Luc) mRNA [2]; mice, i.v., 0.5 mg/kg) | Total Flux Liver (luciferase (Luc) mRNA [4]) | Total Flux Lung (luciferase (Luc) mRNA [4]) | Total Flux Spleen (luciferase (Luc) mRNA [4]) | other results
1 | CCCCCCCCOP(=O)(OCCCCCCCC)OCCCCCCCN(CCO)CCCCCCCC(=O)OC(C)CCCCCCCC (stereo not shown) [Compound 132, Decan-2-yl 8-((7-((bis(octyloxy)phosphoryl)oxy)heptyl)(2-hydroxyethyl)amino)octanoate] | 30.77% | 7.34 | 0.180 | 298.0 nm | 0.187 | 0.212 | 1.75E+10 h * p/s | 1.77E+09 | 1.36E+09 | 5.31E+07 | 1.49E+08 | 1.39E+07 | 3.37E+08 | 
2 | CCCCCCCCC(CCCCCC)C(=O)OCCCCCCCCCN(CCO)CCCCCCCCCOC(=O)C(CCCCCC)CCCCCCCC (stereo not shown) [Compound 133, ((2-Hydroxyethyl)azanediyl)bis(nonane-9,1-diyl) bis(2-hexyldecanoate)] | 91.48% | 6.38 | 0.098 | 66.0 nm | 4.02 | 4.39 | 3.62E+11 h * p/s | 3.32E+10 | 2.93E+10 | 4.74E+08 | 2.94E+09 | 3.18E+06 | 1.77E+07 | 
3 | CCCCCCCCCOC(=O)CCCCCCCN(CCO)CCCCCCCC(=O)OC(CCCC)CCCC [Compound 57, nonan-5-yl 8-((2-hydroxyethyl)(8-(nonyloxy)-8-oxooctyl)amino) octanoate] | 94.33% |  | 0.16 | 128.4 nm |  |  |  | 6.69E+06 | 6.21E+06 | 4.16E+05 | 9.36E+05 | 3.18E+04 | 2.47E+06 | Fold increase in total body Luc Flux relative to MC3 at 6 h (luciferase (Luc) mRNA [2]): 0.00056; flux at all timepoints measured (luciferase (Luc) mRNA [2]; mice, i.v., 0.5 mg/kg, 3, 6 and 24 hour, in words): significantly lower flux; Total flux, 0.001 mpk Dose (luciferase (Luc) mRNA [6]; 0.001 mpk): 1.16E+05 p/s; Total flux, 0.01 mpk Dose (luciferase (Luc) mRNA [6]; 0.01 mpk): 2.23E+05 p/s
4 | CCCCCCCCCOC(=O)CCCCCCCN(CCO)CCCCCCCC(=O)OC1CCC(CCCCC)CC1 (stereo not shown) [Compound 79, Nonyl 8-((2-hydroxyethyl)(8-oxo-8-((4-pentylcyclohexyl)oxy)octyl)amino)octanoate] | 89.1% | 7.53 | 0.18 | 93.7 nm |  |  |  | 3.23E+08 | 5.27E+08 | 3.08E+07 | 3.15E+06 | 6.13E+04 | 6.45E+05 | 
5 | CCCCCCCCCOC(=O)CCCCCCCN(CCO)CCCCCCCC(=O)OC1CCCCCCCCCCCCCC1 [Compound 81, Cyclopentadecyl 8-((2-hydroxyethyl)(8-(nonyloxy)-8-oxooctyl)amino)octanoate] | 95.4% | 7.14 | 0.14 | 99.2 nm |  |  |  | 7.87E+09 | 9.96E+09 | 5.13E+08 | 2.74E+08 | 6.23E+06 | 4.49E+07 | 

The next lines start with results.

Row | EE (%) [1] | pKa [3] | PDI [5] | Size (nm) [5] | SMILES | 6 h Lipid/MC3 Avg. Luc Expression (luciferase (Luc) mRNA [2]) | Fold increase AUC Lipid/MC3 (luciferase (Luc) mRNA [2]) | AUC (h * p/s) (luciferase (Luc) mRNA [2]; Luc) | Total Flux 3 hours (luciferase (Luc) mRNA [2]; mice, i.v., 0.5 mg/kg) | Total Flux 6 hours (luciferase (Luc) mRNA [2]; mice, i.v., 0.5 mg/kg) | Total Flux 24 hours (luciferase (Luc) mRNA [2]; mice, i.v., 0.5 mg/kg) | Total Flux Liver (luciferase (Luc) mRNA [4]) | Total Flux Lung (luciferase (Luc) mRNA [4]) | Total Flux Spleen (luciferase (Luc) mRNA [4]) | other results
6 | 90.20% | 6.47 | 0.130 | 89.5 nm | CCCCCCCCC(C)OC(=O)CCCCCCCN(CCO)CCCCCCCOC(=O)C(CCCCCCCC)CCCCCCCC (stereo not shown) [Compound 135, 7-((8-(Decan-2-yloxy)-8-oxooctyl)(2-hydroxyethyl)amino)heptyl 2-octyldecanoate] | 13.6 | 15.2 | 1.25E+12 h * p/s | 1.24E+11 | 9.90E+10 | 2.51E+09 | 1.65E+10 | 2.71E+07 | 1.39E+08 | total flux at 3 hours (luciferase (Luc) mRNA [2]; mice, i.v., 0.5 mg/kg, comparison in words): highest; Flux in the liver (luciferase (Luc) mRNA [4]; i.v., in words): highest
7 | 91.94% | 7.78 | 0.210 | 97.0 nm | CCCCCCCCC(CCCCCCCC)OC(=O)CCCCCCCN(CCO)CCCCCC(=O)N(C)CCCCCCCC [Compound 146, Heptadecan-9-yl 8-((2-hydroxyethyl)(6-(methyl(octyl)amino)-6-oxohexyl)amino)octanoate] | 0.011 | 0.013 | 1.04E+09 h * p/s | 9.48E+07 | 8.39E+07 | 2.30E+06 | 7.24E+06 | 3.88E+06 | 5.11E+07 | 
8 | 98.00% | 6.284 | 0.110 | 62.1 nm | CCCCCCCCC(CCCCCCCC)OC(=O)CCCCCCCN(C)CCCCCCCCCC(=O)OCCCCCCC [Compound 149, Heptyl 10-((8-(heptadecan-9-yloxy)-8-oxooctyl)(methyl)amino)decanoate] |  |  |  | 1.01E+10 | 8.33E+09 | 3.45E+08 | 1.11E+09 | 2.69E+06 | 2.71E+07 | Lipid/MC3 AUC (luciferase (Luc) mRNA [2]; Table 3D, intravenous): 0.55; AUC (p/s * h) (luciferase (Luc) mRNA [2]; Table 3D, intravenous, Luc): 1.057E+011 p/s * h
9 | 89.15% | 7.25 | 0.140 | 176.5 nm | CCCCCCCCC(CCCCCCCC)OC(=O)CCCCCCCN(CCO)CCCCCCCC(=O)N(C)CCCCCCCC [Compound 145, Heptadecan-9-yl 8-((2-hydroxyethyl)(8-(methyl(octyl)amino)-8-oxooctyl)amino)octanoate] | 0.89 | 0.983 | 8.1E+10 h * p/s | 7.11E+09 | 6.50E+09 | 2.38E+08 | 5.01E+08 | 1.36E+07 | 4.25E+08 | 
10 | 92.52% | 6.64 | 0.14 | 133.8 nm | CCCCCCCCCOC(=O)CCCCCCCN(CCO)CCCCCCCC(=O)OC(CCC)CCCCCCCC (stereo not shown) [Compound 34, dodecan-4-yl 8-((2-hydroxyethyl)(8-(nonyloxy)-8-oxooctyl)amino) octanoate] |  |  |  | 1.06E+10 | 1.48E+10 | 6.69E+08 | 2.08E+09 | 9.49E+06 | 2.40E+08 | Fold increase in total body Luc Flux relative to MC3 at 6 h (luciferase (Luc) mRNA [2]): 0.34; Flux in the spleen (luciferase (Luc) mRNA [4]; i.v., in words): highest
